Results: ChEMBL document CHEMBL1140084, “Discovery and evaluation of 4-(2-(4-chloro-1H-pyrazol-1-yl)ethylamino)-3-(6-(1-(3-fluoropropyl)piperidin-4-yl)-4-methyl-1H-benzo[d]imidazol-2-yl)pyridin-2(1H)-one (BMS-695735), an orally efficacious inhibitor of insulin-like growth factor-1 receptor kinase with broad spectrum in vivo antitumor …” (J Med Chem, 2008)
Converted amounts (≈) assume the structure as drawn. Values belong to the molecule of their own block, whether it stands above or below them. The source made the active and inactive calls. No cut-off for these calls is given here.

Assays:
[1] = Antiproliferative activity against transgenic mouse SAL cells overexpressing human IGF1R assessed as [3H]thymidine incorporation after 72 hrs
Cytochrome P450 3A4 = Cytochrome P450 3A4 (Homo sapiens, UniProt P08684); test: Inhibition of human recombinant CYP3A4 in human liver microsomes using BFC as a substrate
Sequence of Cytochrome P450 3A4 (P08684 whole entry): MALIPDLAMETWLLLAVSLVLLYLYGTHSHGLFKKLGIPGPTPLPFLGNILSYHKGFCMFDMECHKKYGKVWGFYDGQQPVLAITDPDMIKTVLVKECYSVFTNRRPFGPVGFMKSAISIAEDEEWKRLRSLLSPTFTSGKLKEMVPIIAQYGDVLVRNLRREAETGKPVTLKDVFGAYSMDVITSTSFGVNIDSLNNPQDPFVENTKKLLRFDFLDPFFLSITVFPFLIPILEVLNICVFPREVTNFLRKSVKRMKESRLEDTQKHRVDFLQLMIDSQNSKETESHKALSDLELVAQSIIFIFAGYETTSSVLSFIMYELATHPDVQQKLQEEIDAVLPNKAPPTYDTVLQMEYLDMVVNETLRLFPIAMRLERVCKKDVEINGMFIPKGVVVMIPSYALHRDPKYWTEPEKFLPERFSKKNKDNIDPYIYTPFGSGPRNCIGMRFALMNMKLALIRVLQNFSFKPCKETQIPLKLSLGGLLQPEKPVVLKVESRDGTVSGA

[2] = molecular target: T1, Nuclear receptor subfamily 1 group I member 2 (Homo sapiens, UniProt O75469); test: Induction of PXR transactivation
T1 sequence (O75469 whole entry): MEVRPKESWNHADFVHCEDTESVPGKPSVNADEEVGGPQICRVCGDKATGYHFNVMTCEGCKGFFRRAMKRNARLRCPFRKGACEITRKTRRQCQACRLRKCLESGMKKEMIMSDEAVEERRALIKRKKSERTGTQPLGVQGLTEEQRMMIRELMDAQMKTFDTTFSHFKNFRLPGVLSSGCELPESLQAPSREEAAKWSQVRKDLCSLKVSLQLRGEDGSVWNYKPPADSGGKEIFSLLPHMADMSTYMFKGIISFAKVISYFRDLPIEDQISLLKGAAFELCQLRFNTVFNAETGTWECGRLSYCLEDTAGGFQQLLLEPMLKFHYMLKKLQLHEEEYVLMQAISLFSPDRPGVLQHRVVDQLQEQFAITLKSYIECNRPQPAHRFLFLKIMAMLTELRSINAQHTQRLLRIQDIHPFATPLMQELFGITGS

[3] = Protein binding in human plasma at 10 uM; type: ADME, cell-free; details: read-out: PPB
[4] = Apparent permeability across human CaCo2 cells; type: ADME, cell-based; details: Caco-2
[5] = Protein binding in mouse plasma at 10 uM by equilibrium dialysis; type: ADME, cell-free; details: read-out: PPB (converted)
Hepatocyte [6] = test: Increase in CYP3A4 mRNA expression level in human hepatocytes; type: functional, cell-based
[7] = molecular target: PXR (nuclear receptor subfamily 1 group I member 2) (Homo sapiens, UniProt O75469); test: Induction of PXR transactivation at 10 uM relative to rifampicin; details: read-out: Activity
[8] = AUC in mouse at 20 mg/kg after 4 hrs; type: ADME, organism-based; parameters: time < 4 hr, dose 20 mg/kg; details: plasma
[9] = molecular target: MAP kinase-activated protein kinase 2 (Homo sapiens, UniProt P49137); test: Inhibition of MK2
Sequence of MAP kinase-activated protein kinase 2 (P49137 whole entry): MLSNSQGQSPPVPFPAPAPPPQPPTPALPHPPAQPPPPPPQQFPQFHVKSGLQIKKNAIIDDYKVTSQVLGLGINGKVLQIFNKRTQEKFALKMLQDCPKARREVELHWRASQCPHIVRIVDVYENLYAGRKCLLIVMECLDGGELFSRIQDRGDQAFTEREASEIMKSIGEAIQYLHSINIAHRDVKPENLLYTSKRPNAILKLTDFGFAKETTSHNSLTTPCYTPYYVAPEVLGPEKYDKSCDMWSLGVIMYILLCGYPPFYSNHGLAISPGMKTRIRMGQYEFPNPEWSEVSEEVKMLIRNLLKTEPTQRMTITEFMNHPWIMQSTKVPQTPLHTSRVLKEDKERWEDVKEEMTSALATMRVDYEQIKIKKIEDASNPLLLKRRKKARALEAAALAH

[10] = molecular target: Hepatocyte growth factor receptor (Homo sapiens, UniProt P08581); test: Inhibition of GST-tagged Met
[11] = Cmax in monkey at 10 mg/kg, po; type: ADME, organism-based, Macaca mulatta; parameters: dose 10 mg/kg, route oral; details: rhesus monkey, in vivo
[12] = Total clearance in mouse at 5 mg/kg, iv and 50 mg/kg, po; type: ADME, organism-based; details: in vivo
Phosphodiesterase 4 = Phosphodiesterase 4 (Homo sapiens, UniProt P27815+Q08499+Q07343+Q08493); test: Inhibition of human PDE4 in U937 cells; type: cell-based; details: u-937
Mus musculus [13] = test: Induction of glucose homeostasis in mouse assessed as glucose elevation at 100 mg/kg after glucose challenge by OGTT; type: functional, organism-based; parameters: dose 100 mg/kg
[14] = Volume of distribution at steady state in monkey at 2 mg/kg, iv and 10 mg/kg, po; type: ADME, organism-based, Macaca mulatta; details: rhesus monkey, in vivo, read-out: Vdss
[15] = molecular target: Protein kinase C delta type (Homo sapiens, UniProt Q05655); test: Inhibition of PKCdelta
Sequence of Protein kinase C delta type (Q05655 whole entry): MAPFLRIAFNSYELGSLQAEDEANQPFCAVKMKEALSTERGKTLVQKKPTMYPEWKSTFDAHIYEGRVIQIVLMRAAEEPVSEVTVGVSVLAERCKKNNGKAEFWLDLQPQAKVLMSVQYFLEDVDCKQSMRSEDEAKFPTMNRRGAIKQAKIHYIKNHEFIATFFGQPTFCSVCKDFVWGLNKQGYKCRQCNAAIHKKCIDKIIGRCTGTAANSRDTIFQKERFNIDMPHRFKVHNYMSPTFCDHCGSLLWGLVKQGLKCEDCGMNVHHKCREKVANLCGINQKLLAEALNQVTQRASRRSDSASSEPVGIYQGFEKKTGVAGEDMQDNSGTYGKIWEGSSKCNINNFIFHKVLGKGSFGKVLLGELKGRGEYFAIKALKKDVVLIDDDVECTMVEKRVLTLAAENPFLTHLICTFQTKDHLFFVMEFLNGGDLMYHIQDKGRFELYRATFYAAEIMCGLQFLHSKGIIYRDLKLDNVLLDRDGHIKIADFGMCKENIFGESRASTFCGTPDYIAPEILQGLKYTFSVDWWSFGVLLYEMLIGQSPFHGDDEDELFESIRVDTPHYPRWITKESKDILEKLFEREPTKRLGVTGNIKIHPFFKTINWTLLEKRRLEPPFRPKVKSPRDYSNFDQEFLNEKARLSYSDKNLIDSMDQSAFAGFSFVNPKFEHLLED

[16] = molecular target: Receptor tyrosine-protein kinase erbB-2 (Homo sapiens, UniProt P04626); test: Inhibition of GST-tagged HER2
Sequence of Receptor tyrosine-protein kinase erbB-2 (P04626 whole entry): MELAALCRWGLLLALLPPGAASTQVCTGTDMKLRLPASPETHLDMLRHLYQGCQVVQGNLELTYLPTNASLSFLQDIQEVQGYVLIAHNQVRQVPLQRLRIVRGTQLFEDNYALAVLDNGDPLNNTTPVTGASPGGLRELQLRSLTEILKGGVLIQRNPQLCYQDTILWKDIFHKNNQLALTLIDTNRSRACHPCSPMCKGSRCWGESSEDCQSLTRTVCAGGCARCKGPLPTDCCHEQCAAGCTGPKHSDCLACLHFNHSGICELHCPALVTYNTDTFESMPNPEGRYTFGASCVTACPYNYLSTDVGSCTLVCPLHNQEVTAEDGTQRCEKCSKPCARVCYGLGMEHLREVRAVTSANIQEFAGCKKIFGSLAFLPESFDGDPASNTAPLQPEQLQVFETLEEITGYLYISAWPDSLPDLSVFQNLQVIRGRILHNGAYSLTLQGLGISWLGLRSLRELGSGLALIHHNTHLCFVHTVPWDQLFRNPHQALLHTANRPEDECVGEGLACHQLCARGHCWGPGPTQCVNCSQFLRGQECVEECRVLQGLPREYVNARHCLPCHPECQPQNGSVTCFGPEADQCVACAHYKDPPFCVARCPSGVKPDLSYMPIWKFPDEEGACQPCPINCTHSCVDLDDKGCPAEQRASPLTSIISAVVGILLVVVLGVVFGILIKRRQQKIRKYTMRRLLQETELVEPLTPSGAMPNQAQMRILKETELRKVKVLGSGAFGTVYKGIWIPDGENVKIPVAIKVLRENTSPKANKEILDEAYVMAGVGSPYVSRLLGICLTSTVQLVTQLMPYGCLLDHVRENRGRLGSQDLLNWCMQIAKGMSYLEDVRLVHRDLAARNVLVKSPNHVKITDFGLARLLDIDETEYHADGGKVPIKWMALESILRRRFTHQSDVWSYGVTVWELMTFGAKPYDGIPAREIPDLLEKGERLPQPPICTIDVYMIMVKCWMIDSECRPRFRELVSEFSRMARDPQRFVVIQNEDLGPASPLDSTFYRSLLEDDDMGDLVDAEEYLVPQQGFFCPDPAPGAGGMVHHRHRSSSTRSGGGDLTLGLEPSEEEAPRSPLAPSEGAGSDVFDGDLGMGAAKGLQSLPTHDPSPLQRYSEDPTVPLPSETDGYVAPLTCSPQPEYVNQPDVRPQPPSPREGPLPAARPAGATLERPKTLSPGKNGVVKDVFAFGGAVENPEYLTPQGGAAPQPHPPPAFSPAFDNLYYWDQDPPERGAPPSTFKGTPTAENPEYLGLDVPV

Mus musculus [17] = test: Induction of glucose homeostasis in mouse assessed as glucose elevation at 50 mg/kg after glucose challenge by OGTT; type: functional, organism-based; parameters: dose 50 mg/kg
[18] = Aqueous solubility of the compound; type: physicochemical; details: buffer
[19] = Inhibition of His-tagged GSK3
[20] = Antitumor activity against human JJN3 cell xenografted nu/nu athymic mouse at 100 mg/kg, po bid for 21 days; type: functional; details: JJN-3, 504 h, read-out: TGI
[21] = molecular target: Epidermal growth factor receptor (Homo sapiens, UniProt P00533); test: Inhibition of GST-tagged HER1
[22] = Inhibition of GST-tagged IKK
[23] = Total clearance in dog at 2 mg/kg, iv and 10 mg/kg, po; type: ADME, organism-based, Canis lupus familiaris; details: in vivo
[24] = Total clearance in monkey at 2 mg/kg, iv and 10 mg/kg, po; type: ADME, organism-based, Macaca mulatta; details: rhesus monkey, in vivo
[25] = Volume of distribution at steady state in dog at 2 mg/kg, iv and 10 mg/kg, po; type: ADME, organism-based, Canis lupus familiaris; details: in vivo, read-out: Vdss
[26] = molecular target: Fibroblast growth factor receptor 1 (Homo sapiens, UniProt P11362); test: Inhibition of human recombinant FGFR1
[27] = Volume of distribution at steady state in mouse at 5 mg/kg, iv and 50 mg/kg, po; type: ADME, organism-based; details: in vivo, read-out: Vdss
[28] = molecular target: Protein kinase C alpha type (Homo sapiens, UniProt P17252); test: Inhibition of PKCalpha
Cytochrome P450 2C19 = Cytochrome P450 2C19 (Homo sapiens, UniProt P33261); test: Inhibition of human recombinant CYP2C19 in human liver microsomes; type: ADME, Microsome
Sequence of Cytochrome P450 2C19 (P33261 whole entry): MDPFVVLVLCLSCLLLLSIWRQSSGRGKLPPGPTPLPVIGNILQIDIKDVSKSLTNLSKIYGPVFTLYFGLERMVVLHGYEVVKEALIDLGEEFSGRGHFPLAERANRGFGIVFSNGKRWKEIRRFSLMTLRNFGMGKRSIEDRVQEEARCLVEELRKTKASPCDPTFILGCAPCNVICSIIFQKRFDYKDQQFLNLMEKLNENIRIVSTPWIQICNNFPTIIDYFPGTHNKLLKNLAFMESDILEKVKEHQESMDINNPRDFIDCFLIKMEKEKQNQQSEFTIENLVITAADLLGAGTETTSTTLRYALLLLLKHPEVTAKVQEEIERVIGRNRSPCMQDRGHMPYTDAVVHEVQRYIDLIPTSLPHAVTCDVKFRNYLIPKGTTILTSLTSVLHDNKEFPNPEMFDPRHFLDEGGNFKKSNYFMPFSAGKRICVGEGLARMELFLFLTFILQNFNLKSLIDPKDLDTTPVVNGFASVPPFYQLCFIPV

Mus musculus [29] = test: Induction of glucose homeostasis in mouse assessed as glucose elevation at 50 to 100 mg/kg prior to glucose challenge by OGTT; type: functional, organism-based
[30] = Cmax in mouse at 50 mg/kg, po; type: ADME, organism-based; parameters: dose 50 mg/kg, route oral; details: in vivo
[31] = Half life in monkey at 2 mg/kg, iv and 10 mg/kg, po; type: ADME, organism-based, Macaca mulatta; details: rhesus monkey, in vivo
Cytochrome P450 1A2 = Cytochrome P450 1A2 (Homo sapiens, UniProt P05177); test: Inhibition of human recombinant CYP1A2 in human liver microsomes; type: ADME, Microsome
[32] = Total clearance in rat at 2 mg/kg, iv and 10 mg/kg, po; type: ADME, organism-based; details: in vivo
Hepatocyte [33] = test: Cytotoxicity against human hepatocytes; type: cell-based
[34] = Cmax in dog at 10 mg/kg, po; type: ADME, organism-based, Canis lupus familiaris; parameters: dose 10 mg/kg, route oral; details: in vivo
[35] = Cmax in rat at 10 mg/kg, po; type: ADME, organism-based; parameters: dose 10 mg/kg, route oral; details: in vivo
[36] = Volume of distribution at steady state in rat at 2 mg/kg, iv and 10 mg/kg, po; type: ADME, organism-based; details: in vivo, read-out: Vdss
[37] = molecular target: Vascular endothelial growth factor receptor 2 (Homo sapiens, UniProt P35968); test: Inhibition of GST-tagged KDR
[38] = Oral bioavailability in mouse at 50 mg/kg; type: ADME, organism-based; details: in vivo
Cytochrome P450 2D6 = Cytochrome P450 2D6 (Homo sapiens, UniProt P10635); test: Inhibition of human recombinant CYP2D6 in human liver microsomes; type: ADME, Microsome
[39] = molecular target: cAMP-dependent protein kinase catalytic subunit beta (Homo sapiens, UniProt P22694); test: Inhibition of PKA-B
[40] = Antitumor activity against mouse IGFSal cell xenografted nu/nu athymic mouse at 50 mg/kg, po bid for 5 days; type: functional; details: 120 h, read-out: TGI
[41] = Half life in rat at 2 mg/kg, iv and 10 mg/kg, po; type: ADME, organism-based; details: in vivo
Cytochrome P450 2C9 = Cytochrome P450 2C9 (Homo sapiens, UniProt P11712); test: Inhibition of human recombinant CYP2C9 in human liver microsomes; type: ADME, Microsome
[42] = Inhibition of IRK
[43] = Half life in dog at 2 mg/kg, iv and 10 mg/kg, po; type: ADME, organism-based, Canis lupus familiaris; details: in vivo
[44] = Antitumor activity against human Geo cell xenografted nu/nu athymic mouse at 100 mg/kg, po bid for 21 days; type: functional; details: 504 h, read-out: TGI
[45] = Half life in mouse at 5 mg/kg, iv and 50 mg/kg, po; type: ADME, organism-based; details: in vivo
[46] = molecular target: RAC-alpha serine/threonine-protein kinase (Homo sapiens, UniProt P31749); test: Inhibition of AKT
Focal adhesion kinase 1 = Focal adhesion kinase 1 (Homo sapiens, UniProt Q05397)
[47] = molecular target: Mitogen-activated protein kinase 14 (Homo sapiens, UniProt Q16539); test: Inhibition of p38alpha
Sequence of Mitogen-activated protein kinase 14 (Q16539 whole entry): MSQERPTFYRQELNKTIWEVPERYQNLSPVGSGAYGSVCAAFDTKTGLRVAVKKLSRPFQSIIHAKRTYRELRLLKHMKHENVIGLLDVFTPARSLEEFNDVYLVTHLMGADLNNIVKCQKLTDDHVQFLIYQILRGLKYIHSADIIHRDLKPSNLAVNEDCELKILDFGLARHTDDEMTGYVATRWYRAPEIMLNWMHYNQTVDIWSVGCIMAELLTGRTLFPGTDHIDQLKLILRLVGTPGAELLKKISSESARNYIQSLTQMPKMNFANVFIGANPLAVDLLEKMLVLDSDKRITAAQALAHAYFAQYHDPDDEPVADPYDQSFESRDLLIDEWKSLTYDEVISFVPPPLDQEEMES

[48] = molecular target: Insulin-like growth factor 1 receptor (Homo sapiens, UniProt P08069); test: Inhibition of human IGF1R expressed in transgenic mouse IGFSal cells; type: cell-based
Sequence of Insulin-like growth factor 1 receptor (P08069 31-736 limits assumed): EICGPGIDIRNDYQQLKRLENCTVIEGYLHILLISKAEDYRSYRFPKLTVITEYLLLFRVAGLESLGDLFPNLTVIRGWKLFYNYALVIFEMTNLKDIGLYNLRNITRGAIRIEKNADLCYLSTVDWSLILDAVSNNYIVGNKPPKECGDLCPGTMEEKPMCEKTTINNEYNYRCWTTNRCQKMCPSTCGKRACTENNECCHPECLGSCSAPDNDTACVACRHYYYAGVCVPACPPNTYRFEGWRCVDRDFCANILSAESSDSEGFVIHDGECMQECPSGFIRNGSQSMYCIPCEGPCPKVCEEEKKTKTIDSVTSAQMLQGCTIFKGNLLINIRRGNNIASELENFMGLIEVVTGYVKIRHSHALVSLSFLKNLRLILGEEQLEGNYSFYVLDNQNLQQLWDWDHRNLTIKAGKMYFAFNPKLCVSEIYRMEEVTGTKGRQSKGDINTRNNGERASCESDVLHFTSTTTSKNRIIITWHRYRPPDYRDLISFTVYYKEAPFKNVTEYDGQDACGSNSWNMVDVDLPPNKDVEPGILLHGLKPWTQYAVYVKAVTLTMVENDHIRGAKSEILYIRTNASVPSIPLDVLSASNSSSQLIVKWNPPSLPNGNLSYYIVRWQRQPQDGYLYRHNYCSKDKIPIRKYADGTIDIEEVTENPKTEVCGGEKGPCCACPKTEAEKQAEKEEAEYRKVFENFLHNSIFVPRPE
Sequence of Insulin-like growth factor 1 receptor (P08069 741-1367 limits assumed): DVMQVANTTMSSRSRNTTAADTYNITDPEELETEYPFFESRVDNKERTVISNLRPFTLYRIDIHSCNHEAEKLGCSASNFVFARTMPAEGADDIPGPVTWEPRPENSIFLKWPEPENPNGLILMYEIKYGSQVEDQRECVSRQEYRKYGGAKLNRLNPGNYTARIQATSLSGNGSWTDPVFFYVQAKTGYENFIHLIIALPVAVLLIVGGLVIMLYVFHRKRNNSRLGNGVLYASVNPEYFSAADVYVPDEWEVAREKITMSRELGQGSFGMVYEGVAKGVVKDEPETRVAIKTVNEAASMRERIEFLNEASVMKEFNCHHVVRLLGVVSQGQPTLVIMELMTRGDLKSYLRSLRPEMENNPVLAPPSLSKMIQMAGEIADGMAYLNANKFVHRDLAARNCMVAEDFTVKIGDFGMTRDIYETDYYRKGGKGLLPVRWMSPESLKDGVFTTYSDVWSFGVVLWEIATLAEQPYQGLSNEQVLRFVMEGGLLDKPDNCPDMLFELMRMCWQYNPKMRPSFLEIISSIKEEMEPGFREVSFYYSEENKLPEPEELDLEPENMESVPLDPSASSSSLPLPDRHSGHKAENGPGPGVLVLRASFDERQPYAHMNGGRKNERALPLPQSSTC

[49] = Oral bioavailability in rat at 10 mg/kg; type: ADME, organism-based; details: in vivo
[50] = Oral bioavailability in dog at 10 mg/kg; type: ADME, organism-based, Canis lupus familiaris; details: in vivo
[51] = Oral bioavailability in monkey at 10 mg/kg; type: ADME, organism-based, Macaca mulatta; details: rhesus monkey, in vivo
COLO 205 = test: Antitumor activity against human Colo205 cell xenografted nu/nu athymic mouse at 100 mg/kg, po bid for 21 days; type: functional; details: COLO 205, 504 h, read-out: TGI
[52] = molecular target: Tyrosine-protein kinase ITK/TSK (Homo sapiens, UniProt Q08881); test: Inhibition of GST-tagged Emt

- IC50 (Cytochrome P450 3A4): 11 µM
- EC20 [2]: > 50 µM
Structure (SMILES): COCCN1CCC(c2cc(C)c3nc(-c4c(NC[C@@H](O)c5cccc(Cl)c5)cc[nH]c4=O)[nH]c3c2)CC1
- IC50 [1]: 0.217 µM

- EC20 [2]: > 50 µM
Structure (SMILES): Cc1cc(C2CCN(CCCF)CC2)cc2[nH]c(-c3c(NC[C@@H](O)c4cccc(Cl)c4)cc[nH]c3=O)nc12
- IC50 [1]: 0.076 µM

Structure (SMILES): Cc1cc(N2CCOCC2)cc2[nH]c(-c3c(NC[C@@H](O)c4cccc(Cl)c4)cc[nH]c3=O)nc12
- fraction unbound at 10 µM [3]: < 0.002
- Papp [4]: 1.8 ×10⁻⁶ cm/s
- fraction unbound at 10 µM [5]: < 0.001
- IC50 [1]: 0.11 µM
- Activity (Hepatocyte [6]): Dose-dependent effect
- activity at 10 µM [7]: 125%
- AUC at 4 h [8]: 50 µM·h
- EC20 [2]: 1.1 µM

- AUC at 4 h [8]: 1.2 µM·h
- IC50 (Cytochrome P450 3A4): 14 µM
- EC20 [2]: > 50 µM
Structure (SMILES): Cc1cc(C2CCN(C)CC2)cc2[nH]c(-c3c(NC[C@@H](O)c4cccc(Cl)c4)cc[nH]c3=O)nc12
- IC50 [1]: 0.085 µM

Structure (SMILES): Cc1cc(C2CCN(CCCF)CC2)cc2[nH]c(-c3c(NCCn4cc(Cl)cn4)cc[nH]c3=O)nc12
- IC50 [9]: > 50 µM
- IC50 [10]: 3.99 µM
- Cmax [11]: 400 nM
- clearance [12]: 159 mL/min/kg
- IC50 (Phosphodiesterase 4): 4 µM
- Activity (Mus musculus [13]): inactive
- Vd [14]: 17 L/kg
- IC50 [15]: 20.3 µM
- IC50 [16]: 6 µM
- Activity (Mus musculus [17]): inactive
- solubility [18]: 137 µg/mL (≈ 268 µM)
- IC50 [19]: 8.56 µM
- inhibition in vivo at 100 mg/kg [20]: 80%
- IC50 [21]: 21 µM
- IC50 [22]: > 100 µM
- clearance [23]: 23 mL/min/kg
- clearance [24]: 27 mL/min/kg
- Vd [25]: 21 L/kg
- IC50 [26]: < 5 µM
- Vd [27]: 18.2 L/kg
- IC50 [28]: 11 µM
- IC50 (Cytochrome P450 2C19): 34 µM
- Activity (Mus musculus [29]): inactive
- Papp [4]: 10.9 ×10⁻⁶ cm/s
- fraction unbound at 10 µM [5]: 0.131
- IC50 [1]: 0.185 µM
- Cmax [30]: 2300 nM
- half-life [31]: 7.3 h
- IC50 (Cytochrome P450 1A2): > 40 µM
- clearance [32]: 76 mL/min/kg
- Activity (Hepatocyte [33]): Non-toxic
- Cmax [34]: 270 nM
- Cmax [35]: 200 nM
- Vd [36]: 20 L/kg
- IC50 [37]: 0.369 µM
- bioavailability [38]: > 100%
- IC50 (Cytochrome P450 2D6): > 40 µM
- IC50 [39]: 37.7 µM
- inhibition in vivo at 50 mg/kg [40]: 81%
- half-life [41]: 4 h
- IC50 (Cytochrome P450 2C9): > 40 µM
- IC50 [42]: 0.072 µM
- half-life [43]: 10.5 h
- inhibition in vivo at 100 mg/kg [44]: 73%
- half-life [45]: 2.3 h
- IC50 [46]: 48.4 µM
- IC50 (Focal adhesion kinase 1): 0.165 µM
- IC50 [47]: 31 µM
- IC50 [48]: 0.034 µM
- bioavailability [49]: 23%
- AUC at 4 h [8]: 3.7 µM·h
- bioavailability [50]: 35%
- IC50 (Cytochrome P450 3A4): 26 µM
- bioavailability [51]: 48%
- inhibition in vivo at 100 mg/kg (COLO 205): 93%
- EC20 [2]: > 50 µM
- IC50 [52]: 0.37 µM
